Results as given in paper PMC7667029, “A Targeted Computational Screen of the SWEETLEAD Database Reveals FDA-Approved Compounds with Anti-Dengue Viral Activity” (mBio, 2020).
“Also recorded” adds a separate entry of the source.

Experiments:
dengue virus [1] = experiment: Initial screening of hit compounds for anti-dengue activity in tissue culture cells (Table S1); assay type: cell-based; conditions: viral titer relative to vehicle, tissue culture cell lines (BHK-21 48 hpi, Fig. S1; Huh7, Fig. 2C, 3C, 4C)
Method: For each query molecule, the top 500 compound hits obtained from the ROCS algorithm, as ranked by the Tanimoto combo score (see Data Set S1 in the supplemental material), were manually inspected for similar chemical and structural features. They were further prioritized by factors such as a lack of known side effects, commercial availability, and the intellectual property considerations that would be needed for worldwide, inexpensive use. Fourteen candidates were tested for their effects on dengue virus growth and toxicity in BHK-21 and Huh7 cells (see Table S1 and Fig. S1 in the supplemental material).
(§1) Supplementary file : TABLE S1 Summary of hits for lead compounds ARDP0006 and ST-148 screened for anti-dengue activity in tissue culture cells. Hit compounds were tested for anti-dengue activity and cell toxicity in tissue culture cell lines. Antiviral activity is summarized as follows: −, not antiviral, with titer greater than 50% of vehicle; +, weakly antiviral, with titer between 20 and 50% of vehicle; ++, moderately antiviral, with titer between 5 and 20% of vehicle; +++, highly antiviral, with titer less than 5% of vehicle. Toxicity at these doses is represented as follows: −, nontoxic, with cell viability greater than 80% of vehicle; +, mild toxicity, with cell viability between 60 and 80% of vehicle; +++, high toxicity, with cell viability less than 60% of vehicle. Data summarized here are depicted graphically in Fig. S1 and Fig. 2C, 3C, and [4]C. The Tanimoto combo score of each hit during initial ROCS screening is indicated; higher Tanimoto combo scores are indicative of increased chemical similarity. Download Table S1, PDF file, 0.04 MB.
Supplementary file : FIG S1 Initial screening of eliminated hit compounds for anti-dengue activity in tissue culture cells. BHK-21 cells were pretreated with the compounds at the indicated concentrations for 30 min, infected with dengue virus at an MOI of 0.1 PFU/cell for 1 h, and then posttreated with compound. At 48 hpi, cellular supernatant was collected and titered by plaque assay (purple). Cell viability in uninfected cells in the presence of compounds for 48 h was measured by WST assay (gray). Both viral titer and cell viability are normalized to their relative DMSO vehicle control, N = 2. Download FIG S1, PDF file, 0.06 MB.

dengue viral RNA = experiment: Intracellular viral RNA quantification by qRT-PCR in infected Huh7 cells; assay type: cell-based, dengue virus
Method: (§2) (A) Chemical structures and (B) ROCS overlay of ST-148 and niclosamide. […] Compound addition, viral growth, and cytotoxicity assays were performed as described in the legend to Fig. 2C. (D) Virucidal activity of compounds at the concentrations indicated was measured after 60-min incubation of drugs with virus-containing solutions at 37°C. Viral titer was quantified by plaque assay on BHK-21 cells. n = 3. Statistical significance was evaluated by one-way ANOVA with Sidak’s multiple-comparison test and indicated as follows: *, P < 0.05; **, P < 0.01; ****, P < 0.0001; ns, not significant. […] On the left, cells were pretreated for 2 h prior to infection, compounds were removed during a 1-h infection at an MOI of 0.5 PFU/cell and then readministered after removal of viral inoculum. On the right, cells were similarly infected and compounds were first introduced 4 h after starting the infection. […] (F) To test the effect of ST-148 and niclosamide on viral RNA replication, Huh7 cells were infected for 1 h at an MOI of 0.5 PFU/cell. […] Intracellular RNA was collected at the time points indicated and quantified by qRT-PCR. […] N = 4, two-way ANOVA with Dunnett’s multiple-comparison test. […] After 4 h of infection, 10 μM ST-148 or 1 μM niclosamide was added; extracellular virus was collected at 24 hpi and quantified by plaque assay.

dengue virus [2] = experiment: Virucidal activity assay, 60-min incubation of drug with virus, plaque assay on BHK-21 cells; assay type: cell-based; conditions: 0.1 μM ST-148, 1 h at 37°C
Method: as §2
Compounds were diluted to 100× in DMSO, then further diluted 1:100 into phosphate-buffered saline (PBS) containing dengue virus to a final volume of 200 μl and mixed. Aliquots were taken for plaque assays immediately after addition of compounds (time [T] = 0 min) or after incubation at 37°C for 60 min (T = 60 min).

DENV2 = experiment: Antiviral activity in DENV2-infected Huh7 cells, infectious virus in supernatant by plaque assay; assay type: cell-based, dengue virus
Method: FIG 2 Pyrimethamine inhibits dengue virus and NS2B/3 proteinase cleavage like ARDP0006. (A) Chemical structures and (B) ROCS overlay of ARDP0006 and pyrimethamine. […] Infectious virus in cell supernatant was quantified by plaque assay at 24 hpi (left y axis, black or red). Cell viability was measured at the same pyrimethamine doses 24 h posttreatment by WST-1 assay (right y axis, gray). Viral titer and cell viability were normalized to DMSO-treated samples. (D) Splenic titers of DENV2-infected AGB6 mice at 4 days postinfection. Mice were infected with 1 × 10^6 PFU DENV2 and treated twice daily with 20 mg/kg pyrimethamine (n = 9) or a vehicle control (n = 10). Data were analyzed by two-tailed unpaired t test. (E) Cleavage kinetics of NS2B/3/4A in the presence of 100 μM pyrimethamine. NS2B/3/4A protein was expressed in vitro and radiolabeled with [^35S]methionine, followed by treatment with 100 μM pyrimethamine or DMSO. Reaction samples were obtained over a 45-min time course, separated by SDS-PAGE, and the fraction of uncleaved proteinase precursor remaining was determined as described previously ([23]). Data from three replicates were fit using single-phase exponential decay functions, and P value was determined by comparing the rate constant, K, of the models using the extra sum-of-squares F test.
Dengue plaque assays were carried out on BHK-21 cells in 24-well plates. Cells were infected with 10-fold serial dilutions of virus, which were allowed to adsorb for at least 1 h at 37°C, and overlaid with standard cell culture medium plus 0.37% (w/vol) sodium bicarbonate and 0.8% (w/vol) Aquacide II (Millipore Calbiochem). After 7 days of incubation at 37°C, 5% CO2, cells were fixed with 5% (final) formaldehyde and stained with crystal violet for plaque enumeration.
Between 4 × 10^4 and 1 × 10^5 Huh7 cells per well were seeded into 24-well plates 1 day prior to infection. Compounds were diluted to 100× final concentration in DMSO and then further diluted 1:100 into appropriate cell culture. Unless otherwise indicated, tested compounds were present for 1 h pretreatment and readministered for posttreatment following infection. […] Media and drugs were removed from cells for infection at a multiplicity of infection (MOI) of 0.1 or 0.5 in 200 μl cold medium per well. After 1 h at 37°C, virus inoculum was removed by aspiration and replaced with medium plus compound or control. After 24-h total infection, infectious virus was quantified by plaque assay. Antiviral IC50 dose-response curves were fitted in GraphPad Prism 8 using the “[inhibitor] versus response, variable slope” function with a constraint “bottom > 0.” IC90 values are defined as the dose at which “y = (span × 0.1) + bottom.”

BHK-21 and Huh7 cells = experiment: Cell viability by WST assay in uninfected cells (Table S1); assay type: cell-based; conditions: cell viability relative to vehicle at these doses
Method: as §1, with “The Tanimoto combo score of each hit during initial ROCS screening is indicated; higher Tanimoto combo scores are indicative of increased chemical similarity. Download Table S1, PDF file, 0.04 MB.” left out
Supplementary file : FIG S1 Initial screening of eliminated hit compounds for anti-dengue activity in tissue culture cells. […] Cell viability in uninfected cells in the presence of compounds for 48 h was measured by WST assay (gray). […]
Mock-infected wells were used to determine cell viability in the presence of chemical compounds compared to 1% DMSO vehicle control. Cell viability was determined using the WST-1 kit (Abcam) per the manufacturer’s instructions. […]

Row | SMILES | Antiviral (dengue virus [1]) | also measured
1 | COc1cc2nc(N3CCN(C(=O)C4COc5ccccc5O4)CC3)nc(N)c2cc1OC (stereo not shown) [Doxazosin] | + (weakly antiviral, with titer between 20 and 50% of vehicle) | –
2 | CC1=NN(c2ccc(C)c(C)c2)C(=O)/C1=N\Nc1cccc(-c2cccc(C(=O)O)c2)c1O [Eltrombopag] | − (not antiviral, with titer greater than 50% of vehicle) | –
3 | Nc1c2c(nc3ccccc13)CCCC2O (stereo not shown) [Hydroxy tacrine] | − (not antiviral, with titer greater than 50% of vehicle) | –
4 | C[C@@]1(O)[C@H](O)[C@@H](CO)O[C@H]1n1ccc2c(N)ncnc21 [MK0608] | – | Viral RNA abundance (dengue viral RNA; 50 μM MK0608, control for inhibited vRNA replication): significantly reduced vRNA load; also recorded: strongly reduced viral RNA abundance
5 | Cc1cnc(NC(=O)C2=C(O)c3ccccc3S(=O)(=O)N2C)s1 [Meloxicam] | − (not antiviral, with titer greater than 50% of vehicle) | –
6 | COc1c2occc2cc2ccc(=O)oc12 [Methoxsalen] | − (not antiviral, with titer greater than 50% of vehicle) | –
7 | Cc1c(NC(=O)c2cccnc2)c(=O)n(-c2ccccc2)n1C [Nifenazone] | + (weakly antiviral, with titer between 20 and 50% of vehicle) | –
8 | COc1ccc2[nH]c([S+]([O-])Cc3ncc(C)c(OC)c3C)nc2c1 (stereo not shown) [Omeprazole] | − (not antiviral, with titer greater than 50% of vehicle) | –
9 | Cc1nccn1CC1CCc2c(c3ccccc3n2C)C1=O (stereo not shown) [Ondansetron] | ++ (moderately antiviral, with titer between 5 and 20% of vehicle) | –
10 | Cc1cccn2c(=O)c(-c3nnn[nH]3)cnc12 [Pemirolast] | − (not antiviral, with titer greater than 50% of vehicle) | –
11 | Nc1c(C(=O)Nc2nnc(-c3ccccc3)s2)sc2nc3c(cc12)CCCCC3 [ST-148] | – | Virucidal activity (viral infectivity after coincubation) (dengue virus [2]): significantly reduced viral infectivity; Virion production at increased dose after entry (DENV2; 10 μM ST-148 or 1 μM niclosamide added after 4 h of infection, extracellular virus at 24 hpi): effective during later, postentry stages; also recorded: inhibited virion production; IC90 (DENV2; Dengue virus, Huh-7, DENV2-infected Huh7 cells, from dose-response curve fit, 24 hpi): 5.6 µM; IC50 (DENV2; Dengue virus, Huh-7, DENV2-infected Huh7 cells, single infectious cycle, plaque assay at 24 hpi, read-out: IC50 of viral inhibition (infectious extracellular virus)): 0.38 µM; Viral titer on delayed addition of compound (DENV2; IC90 dose first added 4 h after infection, Huh7, 24 hpi): eliminated the observed reduction of viral titer; Viral RNA abundance (dengue viral RNA; added 4 h postinfection at IC90 dose (5.6 μM ST-148, 0.66 μM niclosamide)): no difference in viral RNA abundance
12 | Cc1noc(NS(=O)(=O)c2ccc(N)cc2)c1C [Sulfisoxazole] | + (weakly antiviral, with titer between 20 and 50% of vehicle) | –
13 | Nc1nc(N)c2nc(-c3ccccc3)c(N)nc2n1 [Triamterine] | +++ (highly antiviral, with titer less than 5% of vehicle) | Toxicity (BHK-21 and Huh7 cells): +++ (high toxicity, with cell viability less than 60% of vehicle)
